Laboratory results: publication PMC10258794, “To Fold or Not to Fold: Diastereomeric Optimization of an α-Helical Antimicrobial Peptide” (Journal of Medicinal Chemistry, 2023)
In brackets after ≈: the same amount, converted by molar mass. Read-outs that look alike come from different tables or passages of the source.

Key:
A. baumannii ATCC19606 = system: A. baumannii ATCC19606
Procedure: (§1) Antimicrobial activity was determined for all peptides on E. coli W3110, P. aeruginosa PAO1, A. baumannii ATCC19606, K. pneumoniae NCTC418, and methicillin-resistant S. aureus COL and for selected peptides on P. aeruginosa PA14 and the polymyxin B-resistant derivatives PA14 4.13, PA14 4.18, and PA14 2P4 as well as the clinical isolates ZEM-1A and ZEM9A, K. pneumoniae OXA-48, Enterobacter cloacae, Stenotrophomonas maltophilia, B. cenocepacia, and Staphylococus epidermis. To determine the MIC, the broth microdilution method was used.[75] A single bacterial colony was grown in LB medium overnight at 37 °C and 180 rpm shaking. The compounds were prepared as stock solutions of 2 mg/mL in sterilized milliQ deionized water, added to the first well of 96-well sterile, polypropylene round-bottom microtiter plates (TPP, untreated, Corning Incorporated, Kennebunk, USA), and diluted serially by 1/2. […] The bacterial inoculum was prepared by measuring the absorbance of the overnight culture, which was diluted to concentration of the bacteria was quantified by measuring absorbance at 600 nm and diluted to an OD600 of 0.022 in MH medium pH 7.4 (Sigma-Aldrich, Buchs, Switzerland). The sample solutions (150 μL) were mixed with 4 μL of diluted bacterial suspension with a final inoculation of about 5 × 10^5 CFU. For each test, two columns of the plate were kept for sterility control (MH medium only) and growth control (MH medium with bacterial inoculum, no compound). […] The plates were incubated at 37 °C for 16–20 h under static conditions. 15 μL of 3-(4,5-dimethylthiazol-2-yl)-2,5-diphenyltetrazolium bromide (MTT)[76] (1 mg/mL in sterilized milliQ deionized water) was added to each well, and the plates were incubated at room temperature until MTT staining was completed. The MIC was defined as the lowest concentration of the dendrimer that inhibits the visible growth of the tested bacteria (yellow) with the unaided eye.

E. coli W3110 = system: E. coli W3110
Procedure: as §1

K. pneumoniae NCTC418 = system: K. pneumoniae NCTC418
Procedure: as §1

P. aeruginosa PAO1 = system: P. aeruginosa PAO1
Procedure: as §1

S. aureus COL MRSA = details: for MIC S. aureus COL MRSA: MH broth pH 7.4, 16–20 h, 37 °C; for MIC S. aureus COL: supplementary CSV, ranges of Table 1 given as one number
Procedure: as §1

[1] = MH broth pH 7.4, 16–20 h, 37 °C
[2] = supplementary CSV, ranges of Table 1 given as one number

Row | Compound | MIC A. baumannii ATCC19606 (A. baumannii ATCC19606; [1]) [µg/mL] | MIC A. baumannii ATCC19606 (A. baumannii ATCC19606; [2]) [µg/mL] | MIC E. coli W3110 (E. coli W3110; [1]) [µg/mL] | MIC K. pneumoniae NCTC418 (K. pneumoniae NCTC418; [1]) [µg/mL] | MIC P. aeruginosa PAO1 (P. aeruginosa PAO1; [1]) [µg/mL] | MIC P. aeruginosa PAO1 (P. aeruginosa PAO1; [2]) [µg/mL] | MIC S. aureus COL MRSA (S. aureus COL MRSA) [µg/mL] | MIC S. aureus COL (S. aureus COL MRSA) [µg/mL] | MIC K. pneumoniae NCTC418 (K. pneumoniae NCTC418; [2]) [µg/mL] | MIC E. coli W3110 (E. coli W3110; [2]) [µg/mL]
1 | CC(C)C[C@H](NC(=O)[C@H](CC(C)C)NC(=O)[C@H](CC(C)C)NC(=O)[C@H](CCCCN)NC(=O)[C@@H](CC(C)C)NC(=O)[C@@H](CC(C)C)NC(=O)[C@H](CCCCN)NC(=O)[C@@H](CC(C)C)NC(=O)[C@@H](CC(C)C)NC(=O)[C@H](CCCCN)NC(=O)[C@@H](N)CCCCN)C(N)=O [HP14, KKllKllKLLL] | 4 to 8 | 6 (≈ 4.54 µM) | 2 (≈ 1.51 µM) | >64 | 8 (≈ 6.05 µM) | 8 (≈ 6.05 µM) | 16 to 32 | – | – | –
2 | CC(C)C[C@H](NC(=O)[C@H](CC(C)C)NC(=O)[C@@H](CCCCN)NC(=O)[C@H](CC(C)C)NC(=O)[C@H](CC(C)C)NC(=O)[C@@H](CCCCN)NC(=O)[C@H](CC(C)C)NC(=O)[C@H](CC(C)C)NC(=O)[C@@H](CCCCN)NC(=O)[C@H](N)CCCCN)C(=O)N[C@H](CC(C)C)C(N)=O [HP27, kkLLkLLkLLl] | 32 (≈ 24.2 µM) | 32 (≈ 24.2 µM) | 4 (≈ 3.03 µM) | >64 | 8 (≈ 6.05 µM) | 8 (≈ 6.05 µM) | 32 (≈ 24.2 µM) | 32 (≈ 24.2 µM) | – | –
3 | CC(C)C[C@H](NC(=O)[C@H](CC(C)C)NC(=O)[C@H](CC(C)C)NC(=O)[C@H](CCCCN)NC(=O)[C@@H](CC(C)C)NC(=O)[C@@H](CC(C)C)NC(=O)[C@H](CCCCN)NC(=O)[C@H](CC(C)C)NC(=O)[C@H](CC(C)C)NC(=O)[C@H](CCCCN)NC(=O)[C@@H](N)CCCCN)C(N)=O [HP6, KKLLKllKLLL] | 4 (≈ 3.03 µM) | 4 (≈ 3.03 µM) | 2 (≈ 1.51 µM) | 64 (≈ 48.4 µM) | 8 (≈ 6.05 µM) | 8 (≈ 6.05 µM) | 16 (≈ 12.1 µM) | 16 (≈ 12.1 µM) | 64 (≈ 48.4 µM) | –
4 | CC(C)C[C@H](NC(=O)[C@H](CCCCN)NC(=O)[C@H](CC(C)C)NC(=O)[C@H](CC(C)C)NC(=O)[C@@H](CCCCN)NC(=O)[C@H](N)CCCCN)C(=O)N[C@@H](CC(C)C)C(=O)N[C@@H](CCCCN)C(=O)N[C@@H](CC(C)C)C(=O)N[C@H](CC(C)C)C(=O)N[C@H](CC(C)C)C(N)=O [HP18, kkLLKLLKLll] | 8 (≈ 6.05 µM) | 8 (≈ 6.05 µM) | 4 to 8 | >64 | 8 (≈ 6.05 µM) | 8 (≈ 6.05 µM) | 16 to 32 | – | – | 6 (≈ 4.54 µM)
5 | CC(C)C[C@H](NC(=O)[C@@H](CC(C)C)NC(=O)[C@@H](CC(C)C)NC(=O)[C@H](CCCCN)NC(=O)[C@H](CC(C)C)NC(=O)[C@H](CC(C)C)NC(=O)[C@H](CCCCN)NC(=O)[C@H](CC(C)C)NC(=O)[C@@H](CC(C)C)NC(=O)[C@@H](CCCCN)NC(=O)[C@@H](N)CCCCN)C(N)=O [HP17, KklLKLLKllL] | 32 (≈ 24.2 µM) | 32 (≈ 24.2 µM) | 8 (≈ 6.05 µM) | 32 to 64 | 16 (≈ 12.1 µM) | 16 (≈ 12.1 µM) | 32 to 64 | 48 (≈ 36.3 µM) | 48 (≈ 36.3 µM) | –
6 | CC(C)CC(NC(=O)C(CC(C)C)NC(=O)C(CC(C)C)NC(=O)C(CCCCN)NC(=O)C(CC(C)C)NC(=O)[C@H](CC(C)C)NC(=O)C(CCCCN)NC(=O)C(CC(C)C)NC(=O)C(CC(C)C)NC(=O)C(CCCCN)NC(=O)C(N)CCCCN)C(N)=O (mixture of isomers) [sr-ln65L^6] | 8 (≈ 6.05 µM) | 8 (≈ 6.05 µM) | 4 (≈ 3.03 µM) | 16 to 32 | 8 (≈ 6.05 µM) | 8 (≈ 6.05 µM) | 16 (≈ 12.1 µM) | 16 (≈ 12.1 µM) | – | –
7 | CC(C)C[C@H](NC(=O)[C@@H](CC(C)C)NC(=O)[C@H](CC(C)C)NC(=O)[C@@H](CCCCN)NC(=O)[C@H](CC(C)C)NC(=O)[C@@H](CC(C)C)NC(=O)[C@H](CCCCN)NC(=O)[C@@H](CC(C)C)NC(=O)[C@H](CC(C)C)NC(=O)[C@@H](CCCCN)NC(=O)[C@@H](N)CCCCN)C(N)=O [HP30, KkLlKlLkLlL] | 32 (≈ 24.2 µM) | 32 (≈ 24.2 µM) | 8 (≈ 6.05 µM) | >64 | 8 to 16 | 12 (≈ 9.08 µM) | 64 (≈ 48.4 µM) | 64 (≈ 48.4 µM) | – | –
8 | CC(C)C[C@H](NC(=O)[C@@H](CC(C)C)NC(=O)[C@H](CCCCN)NC(=O)[C@@H](CC(C)C)NC(=O)[C@H](CC(C)C)NC(=O)[C@@H](CCCCN)NC(=O)[C@H](CC(C)C)NC(=O)[C@@H](CC(C)C)NC(=O)[C@H](CCCCN)NC(=O)[C@H](N)CCCCN)C(=O)N[C@H](CC(C)C)C(N)=O [HP31, kKlLkLlKlLl] | 32 (≈ 24.2 µM) | 32 (≈ 24.2 µM) | 8 (≈ 6.05 µM) | >64 | 8 (≈ 6.05 µM) | 8 (≈ 6.05 µM) | 32 (≈ 24.2 µM) | 32 (≈ 24.2 µM) | – | –
9 | CC(C)C[C@H](NC(=O)[C@H](CC(C)C)NC(=O)[C@H](CC(C)C)NC(=O)[C@H](CCCCN)NC(=O)[C@H](CC(C)C)NC(=O)[C@@H](CC(C)C)NC(=O)[C@H](CCCCN)NC(=O)[C@@H](CC(C)C)NC(=O)[C@@H](CC(C)C)NC(=O)[C@@H](CCCCN)NC(=O)[C@@H](N)CCCCN)C(N)=O [HP12, KkllKlLKLLL] | 8 (≈ 6.05 µM) | 8 (≈ 6.05 µM) | 2 to 4 | 8 to 16 | 4 to 8 | 6 (≈ 4.54 µM) | 4 (≈ 3.03 µM) | 4 (≈ 3.03 µM) | – | 3 (≈ 2.27 µM)
10 | CC(C)C[C@H](NC(=O)[C@H](CC(C)C)NC(=O)[C@H](CC(C)C)NC(=O)[C@H](CCCCN)NC(=O)[C@@H](CC(C)C)NC(=O)[C@@H](CC(C)C)NC(=O)[C@@H](CCCCN)NC(=O)[C@H](CC(C)C)NC(=O)[C@H](CC(C)C)NC(=O)[C@H](CCCCN)NC(=O)[C@@H](N)CCCCN)C(N)=O [HP9, KKLLkllKLLL] | – | – | 8 (≈ 6.05 µM) | >64 | 64 (≈ 48.4 µM) | 64 (≈ 48.4 µM) | >64 | – | – | –
11 | CC(C)C[C@H](NC(=O)[C@H](CC(C)C)NC(=O)[C@@H](CC(C)C)NC(=O)[C@@H](CCCCN)NC(=O)[C@H](CC(C)C)NC(=O)[C@H](CC(C)C)NC(=O)[C@H](CCCCN)NC(=O)[C@@H](CC(C)C)NC(=O)[C@@H](CC(C)C)NC(=O)[C@H](CCCCN)NC(=O)[C@@H](N)CCCCN)C(N)=O [HP20, KKllKLLklLL] | 32 to 64 | 48 (≈ 36.3 µM) | 8 (≈ 6.05 µM) | >64 | 16 (≈ 12.1 µM) | 16 (≈ 12.1 µM) | >64 | – | – | –
12 | CC(C)C[C@@H](NC(=O)[C@@H](CC(C)C)NC(=O)[C@@H](CC(C)C)NC(=O)[C@@H](CCCCN)NC(=O)[C@@H](CC(C)C)NC(=O)[C@@H](CC(C)C)NC(=O)[C@@H](CCCCN)NC(=O)[C@@H](CC(C)C)NC(=O)[C@@H](CC(C)C)NC(=O)[C@@H](CCCCN)NC(=O)[C@H](N)CCCCN)C(N)=O [dln65, kkllkllklll] | 4 (≈ 3.03 µM) | 4 (≈ 3.03 µM) | 2 to 4 | 4 (≈ 3.03 µM) | 2 to 4 | 3 (≈ 2.27 µM) | 2 to 4 | 3 (≈ 2.27 µM) | 4 (≈ 3.03 µM) | 3 (≈ 2.27 µM)
13 | CC(C)C[C@H](NC(=O)[C@H](CC(C)C)NC(=O)[C@@H](CCCCN)NC(=O)[C@H](CC(C)C)NC(=O)[C@H](CC(C)C)NC(=O)[C@@H](CCCCN)NC(=O)[C@@H](CC(C)C)NC(=O)[C@H](CC(C)C)NC(=O)[C@H](CCCCN)NC(=O)[C@@H](N)CCCCN)C(=O)N[C@H](CC(C)C)C(N)=O [HP23, KKLlkLLkLLl] | – | – | 2 (≈ 1.51 µM) | >64 | 4 to 8 | 6 (≈ 4.54 µM) | 32 (≈ 24.2 µM) | 32 (≈ 24.2 µM) | – | –
